The test system of one test is E. coli CDC F-50. Nature of the test: Antiseptic activity on rat skin. The test is classed as in vivo. Particulars: E. coli CDC F-50 on rat skin; antiseptic concentration 0.2%; exposure time 5 min; n = 6. Here is the method: The study of the antiseptic activity of compound I in rats […] was carried out in accordance with [R 4.2.2643-10 Metody laboratornykh issledovaniy i ispytaniy mediko-profilakticheskikh dezinfektsionnykh sredstv dlya otsenki ikh effektivnosti i bezopasnosti: Rukovodstvo.—M: Federal'nyy tsentr gigiyeny i epidemiologii Rospotrebnadzora, 2010.—S. 615. R 4.2.2643-10 Laboratory methods for the study and testing of medical prophylactic disinfectants to assess their effectiveness and safety: Guide.—M.:: Federal Center for Hygiene and Epidemiology of Rospotrebnadzor, 2010.—P. 615]. Experiments were carried out on male Wistar rats with a body weight of 180-250 g.
A culture of E. coli CDC F-50, grown on dense nutrient medium for (18-20) hours, was washed with sterile isotonic chloride solution, centrifuged at 5000 rpm for 5 minutes, the supernatant was drained and cells were resuspended with sterile isotonic sodium chloride solution.
The bacterial suspension of microorganisms was brought to a turbidity of […] according to McFarland, which corresponds to a concentration of 1.5×10^7 cells/ml.
Animals were formed in 5 groups of 6 animals each. All manipulations with animals were performed under isoflurane anesthesia (4%—induction of anesthesia (2 min, 1 l/min), 2%—basis narcosis). A portion of 5×5 cm was shaved with a hair clipper on the dorsal part of the body of the animal.
A 0.25 ml microbial suspension containing 1×10^7 CFU of E. coli CDC F-50 was applied to the shaved portion of the rat back with a dispenser and distributed with a sterile disposable spatula over the entire square area. It was left for 2-3 minutes until dry.
Then, a gauze cloth (5×5 cm) was applied to the skin of rats for 5 minutes. In the experimental group, the tissue was pre-wetted with 1 ml of 0.2% solution of compound I, and in the positive control groups, the tissue was dipped in 1 ml of 0.2% miramistin, benzalkonium chloride and chlorhexidine. In the negative control group, the cloth was immersed in 1 ml of sterile saline. […]
After the time required for the cultivation of microorganisms of this species, the results were counted according to the number of colonies grown on the Petri dish. […] After counting the number of colonies grown on Petri dishes, the density of contamination per 1 cm^2 of the surface and the percentage of disinfection were calculated, taking the number of colonies removed from control surfaces and not exposed to antiseptics action as 100%. The percentage of growth inhibition of E. coli CDC F-50 was calculated by the formula: […]

The subject of another test is Stylonychia mytilus. Nature of the test: Antiprotozoal activity by death of protozoa. The test is classed as cell-based. The note with it: death of protozoa. Here is the method:
Evaluation of the antiprotozoal activity of compound I was determined by the viability of the protozoa genus of hypotrichs Stylonychia mytilus in a nutrient medium in the presence of the studied substances. A mother liquor of compound I (10 mg/ml) was prepared in a mixture of DMSO and 96% ethanol (1:1). A 1% aqueous solution of DMSO and ethyl alcohol served as a negative control, and miramistin, benzalkonium chloride, and chlorhexidine were used as reference preparations. Then, from the mother liquors by repeated dilutions with water, working solutions were prepared corresponding to doses of 5; 10; 20; 25; 50; 75; 100 and 150 μg/ml. 10 μl of culture medium with protozoa and 10 μl of a solution of the test substance were applied to a chamber slide. The experiment was done in five replicates.
Slides were examined under a light microscope, antiprotozoal activity of substances (MIC and IC50) were determined by the death of protozoa. The Hill regression model with 5 parameters was used for the analysis.

Structures are written as SMILES. In brackets after ≈: the same amount, converted by molar mass.

As a reminder, the IC50 is the concentration at which inhibition is half-maximal. Broadly, the MIC is the smallest concentration in the dilution series that meets the test's criterion for growth inhibition. With `[H]/N=C(\N/C(=N/[H])NCCCCCCNC(=N)NC(=N)Nc1ccc(Cl)cc1)Nc1ccc(Cl)cc1` [Chlorhexidine], the “Growth inhibition rate (M ± SD)” value with E. coli CDC F-50 amounted to 95.7 ± 3.4%. Further, the IC50 in the test on Stylonychia mytilus (Hill regression, read-out: IC50 (95% confidence interval)) is 42 µg/mL (≈ 83.1 µM). The MIC in the test with Stylonychia mytilus (read-out: MIC) was 20 µg/mL (≈ 39.6 µM).

The values are drawn from US11014934B2, “Antiseptic drug” (AO “TATKHIMFARMPREPARATY”, priority 2017, dated 2021).
